# According to US8952024B2, “Herbicidal pyrimidone derivatives” (E I du Pont de Nemours and Company, priority 2009, dated 2015):
# Legend:
# Assay type in all cases: in vivo
# [1] = test system: Italian ryegrass (Lolium multiflorum); experiment: Test B pre-/postemergence plant response
# Outline: (§1)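 Response scores were assigned visually after 13 to 15 days in a greenhouse, comparing treated pots with controls on a 0–100 scale where 100 denotes complete control. Preemergence treatments went onto freshly seeded loam/sand soil; postemergence treatments onto plants 2 to 18 cm tall.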
# [2] = test system: bermudagrass (Cynodon dactylon); experiment: Test B pre-/postemergence plant response
# Outline: as §1
# [3] = test system: blackgrass (Alopecurus myosuroides); experiment: Test B pre-/postemergence plant response
# Outline: as §1
# corn (Zea mays) = experiment: Test B pre-/postemergence plant response
# Outline: as §1
# [4] = test system: downy bromegrass (Bromus tectorum); experiment: Test B pre-/postemergence plant response
# Outline: as §1
# [5] = test system: giant foxtail (Setaria faberii); experiment: Test B pre-/postemergence plant response
# Outline: as §1
# [6] = test system: goosegrass (Eleusine indica); experiment: Test B pre-/postemergence plant response
# Outline: as §1
# [7] = test system: green foxtail (Setaria viridis); experiment: Test B pre-/postemergence plant response
# Outline: as §1
# [8] = test system: johnsongrass (Sorghum halepense); experiment: Test B pre-/postemergence plant response
# Outline: as §1
# [9] = test system: morningglory (Ipomoea coccinea); experiment: Test B pre-/postemergence plant response
# Outline: as §1
# [10] = test system: pigweed (Amaranthus retroflexus); experiment: Test B pre-/postemergence plant response
# Outline: as §1
# [11] = test system: ragweed (common ragweed, Ambrosia elatior); experiment: Test B pre-/postemergence plant response
# Outline: as §1
# soybean (Glycine max) = experiment: Test B pre-/postemergence plant response
# Outline: as §1
# [12] = test system: velvetleaf (Abutilon theophrasti); experiment: Test B pre-/postemergence plant response
# Outline: as §1
# [13] = test system: wheat (Triticum aestivum); experiment: Test B pre-/postemergence plant response
# Outline: as §1
# [14] = test system: canarygrass (Phalaris minor); experiment: Test B postemergence plant response; settings: Postemergence
# Outline: (§2)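 Plants at the 1- to 4-leaf stage (2 to 18 cm tall), grown in pots of peat moss/vermiculite medium with wetting agent and starter nutrients, received postemergence applications of test chemicals. After 13 to 15 days in a greenhouse, injury was rated visually against untreated controls on a 0 (no effect) to 100 (complete control) scale.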
# [15] = test system: chickweed (Stellaria media); experiment: Test B postemergence plant response; settings: Postemergence
# Outline: as §2
# [16] = test system: winter barley (Hordeum vulgare); experiment: Test B postemergence plant response; settings: Postemergence
# Outline: as §2
# [17] = 250 g ai/ha, Preemergence, 0 to 100 scale
# [18] = Postemergence, 62 g ai/ha, scale 0 (no effect) to 100 (complete control), 13 to 15 days
# [19] = Postemergence, 125 g ai/ha, visual rating after 13 to 15 days, scale 0 (no effect) to 100 (complete control)
# [20] = Preemergence, 31 g ai/ha, scale 0 to 100 (0 no effect, 100 complete control)
# [21] = Preemergence, 125 g ai/ha, 0 to 100 scale
# [22] = Postemergence, 31 g ai/ha, scale 0 to 100 (0 no effect, 100 complete control)
# [23] = Postemergence, 250 g ai/ha, scale 0 to 100
# [24] = Preemergence, 62 g ai/ha, scale 0 to 100, 0 no effect, 100 complete control
# [25] = 31 g ai/ha, scale 0 to 100 (0 no effect, 100 complete control)
# [26] = 62 g ai/ha, scale 0 (no effect) to 100 (complete control), 13 to 15 days
# [27] = 125 g ai/ha, visual rating after 13 to 15 days, scale 0 (no effect) to 100 (complete control)
smiles,measurement,setting,value
Cc1cc(F)ccc1-n1c(-c2ccccc2)ncc(C(=O)C2=C(O)CCCC2=O)c1=O [Compound 48],"Plant response rating, Ryegrass, Italian",[1]; [17],0
same,"Plant response rating, Ryegrass, Italian",[1]; [18],5
same,"Plant response rating, Ryegrass, Italian",[1]; [19],30
same,"Plant response rating, Ryegrass, Italian",[1]; [20],0
same,"Ryegrass, Italian plant response rating",[1]; [21],0
same,"Plant response rating, Bermudagrass",[2]; [17],100
same,"Plant response rating, Bermudagrass",[2]; [22],85
same,"Plant response rating, Bermudagrass",[2]; [18],95
same,"Plant response rating, Bermudagrass",[2]; [19],98
same,Bermudagrass plant response rating,[2]; [23],100
same,"Plant response rating, Bermudagrass",[2]; [20],100
same,"Plant response rating, Bermudagrass",[2]; [24],100
same,Bermudagrass plant response rating,[2]; [21],100
same,"Plant response rating, Blackgrass",[3]; [17],5
same,"Plant response rating, Blackgrass",[3]; [22],0
same,"Plant response rating, Blackgrass",[3]; [18],5
same,"Plant response rating, Blackgrass",[3]; [19],20
same,Blackgrass plant response rating,[3]; [23],30
same,"Plant response rating, Blackgrass",[3]; [20],0
same,"Plant response rating, Blackgrass",[3]; [24],0
same,Blackgrass plant response rating,[3]; [21],0
same,"Plant response rating, Corn",corn (Zea mays); [17],0
same,"Plant response rating, Corn",corn (Zea mays); [22],65
same,"Plant response rating, Corn",corn (Zea mays); [18],70
same,"Plant response rating, Corn",corn (Zea mays); [19],85
same,Corn plant response rating,corn (Zea mays); [23],85
same,"Plant response rating, Corn",corn (Zea mays); [20],0
same,"Plant response rating, Corn",corn (Zea mays); [24],0
same,Corn plant response rating,corn (Zea mays); [21],0
same,"Plant response rating, Bromegrass, Downy",[4]; [17],45
same,"Plant response rating, Bromegrass, Downy",[4]; [22],10
same,"Plant response rating, Bromegrass, Downy",[4]; [18],25
same,"Plant response rating, Bromegrass, Downy",[4]; [19],50
same,"Bromegrass, Downy plant response rating",[4]; [23],70
same,"Plant response rating, Bromegrass, Downy",[4]; [20],0
same,"Plant response rating, Bromegrass, Downy",[4]; [24],0
same,"Bromegrass, Downy plant response rating",[4]; [21],0
same,"Plant response rating, Foxtail, Giant",[5]; [17],98
same,"Plant response rating, Foxtail, Giant",[5]; [22],85
same,"Plant response rating, Foxtail, Giant",[5]; [18],85
same,"Plant response rating, Foxtail, Giant",[5]; [19],95
same,"Foxtail, Giant plant response rating",[5]; [23],98
same,"Plant response rating, Foxtail, Giant",[5]; [20],20
same,"Plant response rating, Foxtail, Giant",[5]; [24],75
same,"Foxtail, Giant plant response rating",[5]; [21],85
same,"Plant response rating, Goosegrass",[6]; [17],100
same,"Plant response rating, Goosegrass",[6]; [18],85
same,"Plant response rating, Goosegrass",[6]; [19],95
same,Goosegrass plant response rating,[6]; [23],98
same,"Plant response rating, Goosegrass",[6]; [20],98
same,Goosegrass plant response rating,[6]; [21],100
same,"Plant response rating, Foxtail, Green",[7]; [17],98
same,"Plant response rating, Foxtail, Green",[7]; [22],85
same,"Plant response rating, Foxtail, Green",[7]; [18],95
same,"Plant response rating, Foxtail, Green",[7]; [19],95
same,"Foxtail, Green plant response rating",[7]; [23],95
same,"Plant response rating, Foxtail, Green",[7]; [20],60
same,"Plant response rating, Foxtail, Green",[7]; [24],60
same,"Foxtail, Green plant response rating",[7]; [21],98
same,"Plant response rating, Johnsongrass",[8]; [17],98
same,"Plant response rating, Johnsongrass",[8]; [18],80
same,"Plant response rating, Johnsongrass",[8]; [19],80
same,Johnsongrass plant response rating,[8]; [23],95
same,"Plant response rating, Johnsongrass",[8]; [20],20
same,"Plant response rating, Johnsongrass",[8]; [24],45
same,Johnsongrass plant response rating,[8]; [21],90
same,"Plant response rating, Morningglory",[9]; [17],100
same,"Plant response rating, Morningglory",[9]; [18],70
same,"Plant response rating, Morningglory",[9]; [19],80
same,"Plant response rating, Morningglory",[9]; [20],0
same,"Plant response rating, Morningglory",[9]; [24],100
same,Morningglory plant response rating,[9]; [21],100
same,"Plant response rating, Pigweed",[10]; [17],100
same,"Plant response rating, Pigweed",[10]; [18],85
same,"Plant response rating, Pigweed",[10]; [19],100
same,"Plant response rating, Pigweed",[10]; [20],100
same,Pigweed plant response rating,[10]; [21],100
same,"Plant response rating, Ragweed",[11]; [17],95
same,"Plant response rating, Ragweed",[11]; [18],85
same,"Plant response rating, Ragweed",[11]; [19],90
same,"Plant response rating, Ragweed",[11]; [20],65
same,Ragweed plant response rating,[11]; [21],90
same,"Plant response rating, Soybean",soybean (Glycine max); [17],20
same,"Plant response rating, Soybean",soybean (Glycine max); [18],95
same,"Plant response rating, Soybean",soybean (Glycine max); [19],98
same,"Plant response rating, Soybean",soybean (Glycine max); [20],0
same,Soybean plant response rating,soybean (Glycine max); [21],0
same,"Plant response rating, Velvetleaf",[12]; [17],100
same,"Plant response rating, Velvetleaf",[12]; [18],85
same,"Plant response rating, Velvetleaf",[12]; [19],98
same,"Plant response rating, Velvetleaf",[12]; [20],75
same,Velvetleaf plant response rating,[12]; [21],100
same,"Plant response rating, Wheat",[13]; [17],0
same,"Plant response rating, Wheat",[13]; [18],0
same,"Plant response rating, Wheat",[13]; [19],10
same,"Plant response rating, Wheat",[13]; [20],0
same,Wheat plant response rating,[13]; [21],0
same,"Plant response rating, Canarygrass",[14]; [25],30
same,"Plant response rating, Canarygrass",[14]; [26],30
same,"Plant response rating, Canarygrass",[14]; [27],45
same,Canarygrass plant response rating,"[14]; 250 g ai/ha, scale 0 to 100",45
same,"Plant response rating, Chickweed",[15]; [25],85
same,"Plant response rating, Chickweed",[15]; [26],90
same,"Plant response rating, Chickweed",[15]; [27],95
same,Chickweed plant response rating,"[15]; 250 g ai/ha, scale 0 to 100",100
same,"Plant response rating, Barley",[16]; [25],5
same,"Plant response rating, Barley",[16]; [26],5
same,"Plant response rating, Barley",[16]; [27],10
same,Barley plant response rating,"[16]; 250 g ai/ha, scale 0 to 100",10
